This is an account of results in patent US20080089860A1, “Therapeutic compositions and methods useful in treating cancer” (priority 2006, published 2008).

The test system of one assay is DS cells. Kind of assay: DS lymphoma cell growth, MTT assay. Conditions: day 3; IFN-alpha 1,000 u/ml. The class given is cell-based, human. As to the method:
For cell proliferation assays, cells were grown in 10% FCS culture medium containing various amounts of IFNs and/or sodium stibogluconate in 96 well plates and cultured at 37° C. for 3 or 6 days as indicated. The numbers of viable cells in proliferation assays were determined by MTT assays as described in Phatak et al., J. Immunol. 167, 3391 (2001).

Assay [1] has as its system Jak2/Stat5 and cellular protein tyrosine phosphorylation in Baf3 cells. Put plainly: Cellular protein phosphorylation and Western blotting in Baf3 cells. The class given is cell-based, murine. As to the method:
For induction of cellular protein phosphorylation by sodium stibogluconate or pervanadate, Baf3 cells were incubated in 0.1% FCS-RPMI 1640 medium at 37° C. for 16 hours. The cells were then washed twice in RPMI 1640 medium and incubated with sodium stibogluconate or pervanandate (0.1 mM) for various times prior to termination by lysing cells in cold lysis buffer (50 mM Tris, pH 7.4; 150 mM NaCl; 0.2 mM Na3VO4; 20 mm NaF; 1% Nonidet P-40; 2 mM PMSF; 20 µg/ml of Aprotinin and 1 mM of sodium molybdic acid). To determine the effect of sodium stibogluconate or potassium antimonyl tartrate on IL-3-induced Jak/Stat phosphorylation, Baf3 cells were deprived of the growth factor for 16 hours in 0.1% FCS RPMI 1640 medium and then incubated with or without sodium stibogluconate or potassium antimonyl tartrate for 10 minutes. IL-3 was next added to the cell suspension and incubated for various times. The Cells were then harvested and lysed in cold lysis buffer at 4° C. for 45 minutes. Total cell lysates (TCL) were separated in SDS-PAGE gels, blotted onto nitrocellulose membrane (Schleicher & Schuell), probed with specific antibodies and detected using an enhanced chemiluminescence kit (ECL, Amersham, Arlington Heights, Ill.).

Another assay deals with Baf3 cells. Kind of assay: Baf3 cell proliferation assay. The class given is cell-based, murine. Here is the method:
The murine hematopoietic cell line Baf3 was maintained in RPMI 1640 medium supplemented with 10% fetal calf serum (FCS) and murine IL-3 (20 units/ml) as described previously in Damen et al., J. Biol. Chem. 270, 23402 (1995). Human myeloid cell line TF-1 was maintained in RPMI 1640 supplemented with 10% FCS and 40 ng/ml of recombinant human GM-CSF as described previously in Thomassen et al., Clin. Immunol. 95, 85 (2000). For cell proliferation assays, cells were washed in 10% FCS medium twice, resuspended in 10% FCS medium, incubated at 37° C. for 16 hours, and then cultured at 37° C. in 10% FCS medium containing various amounts of cytokines, sodium stibogluconate, or potassium antimonyl tartrate for 3-6 days as indicated. The cell numbers in proliferation assays were determined by an MTT assay or by microscopic cell counting as indicated.

In assay [2] the test system is Stat1 tyrosine phosphorylation. Put plainly: IFN-alpha-induced Stat1 tyrosine phosphorylation, Western blotting. The class given is cell-based, human. Here is the method:
Cell lysates were prepared by lysing cells in cold lysis buffer for 30 min and cleared by centrifuging at 14,000 rpm at 4° C. for 15 min. For SDS-PAGE, cell lysates were mixed with equal volume of 2×SDS-PAGE sample buffer, heated at 90° C. for 5 min and separated in 10% SDS-PAGE gels. Cellular proteins in SDS-PAGE gels were transferred to nitrocellulose membrane (Schleicher & Schuell, Keene, N.H.), blocked in 5% milk, probed with antibodies and detected by using an enhanced chemiluminescence kit (ECL, Amersham, Arlington Heights, Ill.).

A further assay addresses T1, intracellular Flag-PRL-3 (Homo sapiens, UniProt O75365).
T1 construct: expressed in transfected cells; host or cells: NIH3T3 (pBabepuro, puromycin-selected)
Put plainly: Immunocomplex PTPase assay, Flag-PRL-3 NIH3T3 transfectants. The class given is cell-based. The conditions noted are these: cells treated 5 min. Here is the method:
Immunocomplex PTPase assays were performed to assess the effects of sodium stibogluconate on intracellular PTPases. Cells were untreated or treated with sodium stibogluconate for 5 minutes, washed with fresh medium and then lysed in cold lysis buffer (50 mM Tris, pH 7.4; 150 mM NaCl; 1% NP40; 2 mM PMSF; 20 μg/ml of Aprotinin). The lysates were incubated with an anti-Flag antibody in immunoprecipitation assays. The immunocomplexes were collected with protein G sepharose beads (Pharmacia) and washed in cold lysis buffer for 4 times. […] C. for 18 hrs. 100 µL of malachite green solution (UBI) was added to each reaction prior to measurement of OD660 to quantify the amounts of free phosphate cleaved by the PTPases from the peptide substrate (Pathak et al., J. Imumol. 167, 3391 (2001)). The remaining 10% contents of individual samples were analyzed by SDS-PAGE/Western blotting to quantify the relative amounts of the phosphatase proteins. […]
The effects of sodium stibogluconate on intracellular PTPases were assessed using NIH3T3 or WM9 transfectants. […]

T1 sequence (O75365 whole entry): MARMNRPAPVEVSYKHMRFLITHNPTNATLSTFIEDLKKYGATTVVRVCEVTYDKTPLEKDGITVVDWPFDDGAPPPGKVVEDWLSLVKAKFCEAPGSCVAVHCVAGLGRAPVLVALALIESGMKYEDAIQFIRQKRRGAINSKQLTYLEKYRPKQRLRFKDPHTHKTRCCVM

As for `O.O.O.O.O.O.O.O.O.O=C([O-])[C@@H]1[O][Sb]2([O-])([O][Sb]34([OH])[O][C@H]([C@H](O)CO)[C@H]([O]3)[C@H](C(=O)[O-])[O]4)[O][C@H]([C@H](O)CO)[C@@H]1[O]2.[Na+].[Na+].[Na+]` [sodium stibogluconate], the “activity against DS cells” value in the assay with DS cells was “modest activity”. Besides, in assay [1] (Baf3 cells, in comparison with pervanadate (0.1 mM)), the “induced cellular protein tyrosine phosphorylation” value was “modest and transient”. In addition, the “phosphotyrosine levels of Jak2 and Stat5 relative to cells without drug treatment” value in assay [1] (IL-3-stimulated Baf3 cells, densitometry) is recorded as “about twice”. Moreover, the “Jak2/Stat5 tyrosine phosphorylation by drug alone” value in assay [1] (no IL-3, 37 °C for 16 hours) is “failed to induce”. Further, the “IL-3-induced Baf3 growth” value with Baf3 cells (1,000 μg/ml) is reported as “suppressed”. In the assay with Baf3 cells (day 3 culture), the “cell proliferation and viability in the absence of IL-3” value is recorded as “failed to support cell proliferation or maintain cell viability”. Besides, in assay [2], the “IFN-alpha-induced Stat1 tyrosine phosphorylation in WM35 and WiT49-N1 cell lines” value was “failed to enhance”; the “Stat1 tyrosine phosphorylation in DR cells in the absence of IFN-alpha” value is “failed to induce”. Also, in assay [2] (10 μg/ml, 30 min post-stimulation), the “IFN-alpha-induced Stat1 tyrosine phosphorylation in DR cells” value is reported as “approximately two folds greater than control”. Further, in assay [2] (5 hours post-stimulation), the “IFN-alpha-induced Stat1 tyrosine phosphorylation in WM9 and DU145 cell lines” value was “Enhanced”. Besides, at intracellular Flag-PRL-3, the “PTPase activity of immunocomplexes from treated Flag-PRL-3 transfectants” value is given as “lack of PTPase activity”.
